Experimental findings from the OligoGym collection are described below.

Values joined by “and” are separate entries in the source; they are usually repeats but may differ in a detail not shown here. Equal entries are not always repeated. After the bases stand the sugars from the 5' end (letter, count) and the backbone: PS all phosphorothioate, else s phosphorothioate and o phosphodiester by linkage. Methylation of C is not given here. e = 2'-O-(2-methoxyethyl) (MOE); k = constrained ethyl (cEt); d = 2'-deoxy (DNA)

In this data set the target is SOD1. As to conditions: ASO.

In the case of “AAATACAGGTCATTGAA (sugars e2 k2 d8 k2 e3, PS)”, the target mRNA inhibition (HepG2, 5 µM) worked out at 28%.
For “AGGATTAAAGTGAGGAC (sugars e3 k2 d7 k2 e3, PS)”, for the setting “HepG2, 3 µM”, the target mRNA inhibition was 23%.
In turn, “GCAGGAGACTACGACGCAAA (sugars e5 d10 e5, PS)” registered a target mRNA inhibition (HepG2, 4 µM) of 33%.
Turning to “CTGGCAAAATACAGGTC (sugars e2 k2 d9 k2 e2, PS)”, the target mRNA inhibition (HepG2, 5 µM) is 53%.
On to “TAGACACATCGGCCACACCA (sugars e5 d10 e5, PS)”, for which the target mRNA inhibition (HepG2, 5 µM) is 46% and 36%.
On to “ATGCAATGGTCTCCTGAGAG (sugars e5 d10 e5, PS)”, for which the target mRNA inhibition (HepG2, 5 µM) was determined as 0%.
“TGAGGACCTGCACTGGT (sugars e3 k2 d7 k2 e3, PS)” had a target mRNA inhibition (HepG2, 3 µM) of 8%.
For the sequence “TACAGGGTTTTTATTCA (sugars e2 k2 d8 k2 e3, PS)”, the target mRNA inhibition (HepG2, 5 µM) is 13%.
“AAGTTTAATACCCATCT (sugars e2 k2 d9 k2 e2, PS)” gave a target mRNA inhibition (HepG2, 5 µM) of 59%.
“CAAGGGAATGTTTATTG (sugars e2 k2 d8 k2 e3, PS)” came in with a target mRNA inhibition (HepG2, 4 µM) of 43%.
As for “CCCAATTACACCACAAG (sugars e3 k2 d7 k2 e3, PS)”, the target mRNA inhibition (HepG2, 3 µM) came out at 29%.
The same measure, in the same setting: with “GATAACAGATGAGTTAA (sugars e3 k2 d7 k2 e3, PS)” the figure was 11%.
Regarding “AATAAGTGCCATACAGG (sugars e2 k2 d8 k2 e3, PS)”, the target mRNA inhibition (HepG2, 5 µM) stood at 40%.
Under “HepG2, 3 µM”, “GTGCCATACAGGGTTTT (sugars e3 k2 d7 k2 e3, PS)” displayed a target mRNA inhibition of 7%.
Consider “CGAAATTGATGATGCCCTGC (sugars e5 d10 e5, PS)”, for which the target mRNA inhibition (HepG2, 4 µM) stood at 32%.
“TTACACTTTTAAGATTACAG (sugars e5 d10 e5, PS)” returned a target mRNA inhibition (HepG2, 5 µM) of 0%.
For “TTATTGGGCGATCCCAA (sugars e2 k2 d9 k2 e2, PS)”, the target mRNA inhibition (HepG2, 4 µM) was determined as 41%.
Under “HepG2, 3 µM”, “CTGCACTGGTACAGCCT (sugars e3 k2 d7 k2 e3, PS)” displayed a target mRNA inhibition of 3%.
On to “TGAAACAGACATTTTAACTG (sugars e5 d10 e5, PS)”, for which, where the note is “HepG2, 5 µM”, the target mRNA inhibition was found to be 0%.
“CACCCCGTCTCCGCGACTAC (sugars e5 d10 e5, PS)” gave a target mRNA inhibition (HepG2, 4 µM) of 13%.
As for “TTAATGTTTATCAGGAT (sugars e2 k2 d9 k2 e2, PS)”, the target mRNA inhibition runs as follows: (HepG2, 0.1875 µM) 43%; (HepG2, 0.75 µM) 78%; (HepG2, 3 µM) 93%; (HepG2, 4 µM) 92%; (HepG2, 12 µM) 98%.
Regarding “TTAGTTTGAATTTGGATTCT (sugars e5 d10 e5, PS)”, under “HepG2, 5 µM”, the target mRNA inhibition was 0%.
Consider “AATAGACACATCGGCCACAC (sugars e5 d10 e5, PS)”, for which the target mRNA inhibition (HepG2, 5 µM) is 30% and 25%.
In the case of “TCTACAGCTAGCAGGAT (sugars e2 k2 d9 k2 e2, PS)”, the target mRNA inhibition is, setting by setting: (HepG2, 0.1875 µM) 27%; (HepG2, 0.75 µM) 61%; (HepG2, 3 µM) 85%; (HepG2, 4 µM) 83%; (HepG2, 12 µM) 96%.
As to “TTTCCACCTTTGCCCAA (sugars e3 k2 d7 k2 e3, PS)”, the target mRNA inhibition (HepG2, 3 µM) worked out at 78%.
For the sequence “ACCTCCGCGCCTCGCCCACT (sugars e5 d10 e5, PS)”, the target mRNA inhibition by setting is: (HepG2, 4 µM) 63% and 77%; (HepG2, 12 µM) 92%.
Under “HepG2, 3 µM”, “CTTCCCCACACCTTCAC (sugars e3 k2 d7 k2 e3, PS)” returned a target mRNA inhibition of 29%.
Still for that read-out and setting: with “CAACATGCCTCTCTTCA (sugars e3 k2 d7 k2 e3, PS)” the figure was 3%.
“TTGCCCAAGTCATCTGC (sugars e3 k2 d7 k2 e3, PS)” registered a target mRNA inhibition (HepG2, 3 µM) of 92%.
In the case of “AGTGTTTAATGTTTATC (sugars ekekddddddddeeeee, linkages s1 o2 s9 o2 s2)”, the target mRNA inhibition worked out at 24% (A431, 0.062 µM); 37% (A431, 0.185 µM); 57% (A431, 0.556 µM); 77% (A431, 1.667 µM); 81% (A431, 5 µM); 86% (A431, 15 µM). For the same sequence, the target mRNA inhibition runs as follows: (SH-SY5Y, 0.062 µM) 3%; (SH-SY5Y, 0.185 µM) 6%; (SH-SY5Y, 0.556 µM) 48%; (SH-SY5Y, 1.667 µM) 69%; (SH-SY5Y, 5 µM) 77%; (SH-SY5Y, 15 µM) 87%.
In turn, “CTTTTAAGATTACAGTG (sugars e2 k2 d9 k2 e2, PS)” gave a target mRNA inhibition (HepG2, 5 µM) of 53%.
For the sequence “CCCTTCAGCACGCACAC (sugars e2 k2 d9 k2 e2, PS)”, the target mRNA inhibition runs as follows: (HepG2, 0.1875 µM) 14%; (HepG2, 0.75 µM) 47%; (HepG2, 3 µM) 82%; (HepG2, 4 µM) 81%; (HepG2, 12 µM) 97%.
Sequence “TACAGGTCATTGAAACA (sugars e3 k2 d7 k2 e3, PS)” displayed a target mRNA inhibition (HepG2, 3 µM) of 9%.
As for “CACATCGGCCACACCATCTT (sugars e5 d10 e5, PS)”, the target mRNA inhibition (HepG2, 5 µM) was 27% and 13%.
In turn, “GATCCCAATTACACCAC (sugars e3 k2 d7 k2 e3, PS)” yielded a target mRNA inhibition (HepG2, 3 µM) of 3%.
“CTAGGCCACGCCGAGGTCCT (sugars e5 d10 e5, PS)”: the target mRNA inhibition (HepG2, 4 µM) is 39%.
Take “ATGTTTATCAGGATACA (sugars e2 k2 d9 k2 e2, linkages s1 o3 s9 o1 s2)”: the target mRNA inhibition by setting is: (A431, 0.12 µM) 1%; (A431, 0.6 µM) 4%; (A431, 3 µM) 21%; (A431, 15 µM) 29%; (HepG2, 0.222 µM) 47%; (HepG2, 0.667 µM) 71%. The sequence also showed a target mRNA inhibition (HepG2, 2 µM) of 92% and a target mRNA inhibition (HepG2, 6 µM) of 82%.
On to “GTGAGGACCTGCACTGGTAC (sugars e5 d10 e5, linkages s1 o3 s11 o3 s1)”, for which the target mRNA inhibition runs as follows: (A431, 0.12 µM) 0%; (A431, 0.6 µM) 17%; (A431, 3 µM) 0%; (A431, 15 µM) 16%; (HepG2, 0.222 µM) 0%; (HepG2, 0.667 µM) 16%. Also, the target mRNA inhibition reads like this: (HepG2, 2 µM) 70%; (HepG2, 3 µM) 50%; (HepG2, 6 µM) 35%.
As for “GTTTATTGGGCGATCCC (sugars e3 k2 d7 k2 e3, PS)”, for the setting “HepG2, 3 µM”, the target mRNA inhibition is 18%.
For the sequence “TCTCCAACATGCCTCTC (sugars e3 k2 d7 k2 e3, PS)”, the target mRNA inhibition (HepG2, 3 µM) was 10%.
Same read-out and setting: the value for “TCATCTGCTTTTTCATG (sugars e3 k2 d7 k2 e3, PS)” was 71%; that for “ATTGAAACAGACATTTT (sugars e3 k2 d7 k2 e3, PS)” was 22%; that for “CTATACAAATCTTCCAA (sugars e3 k2 d7 k2 e3, PS)” was 13%.
With “CTCGCCCACTCTGGCCCCAA (sugars e5 d10 e5, PS)”, the target mRNA inhibition (HepG2, 4 µM) came out at 45%.
On the same count and under the same terms, with “GATGCCCTGCACTGGGCCGT (sugars e5 d10 e5, PS)” the figure was 15%.
In turn, “AGACCTCCGCGCCTCGCCCA (sugars e5 d10 e5, PS)” came in with a target mRNA inhibition (HepG2, 12 µM) of 84%.
Sequence “GCGATCCCAATTACACC (sugars e2 k2 d9 k2 e2, PS)” showed a target mRNA inhibition (HepG2, 4 µM) of 58%.
On the same count and under the same terms, the value for “GCCGTCGCCCTTCAGCA (sugars e2 k2 d8 k2 e3, PS)” was 64%.
Take “CCTCAGACTACATCCAA (sugars e3 k2 d7 k2 e3, PS)”: the target mRNA inhibition reads like this: (HepG2, 0.1875 µM) 16%; (HepG2, 0.75 µM) 42%; (HepG2, 3 µM) 58% and 70%; (HepG2, 12 µM) 84%.
In the case of “GACAAAGAAATTCTGACAAG (sugars e5 d10 e5, PS)”, where the note is “HepG2, 5 µM”, the target mRNA inhibition was 8%.
In the case of “TTACAGTGTTTAATGTTT (sugars e5 d8 e5, linkages s1 o3 s9 o2 s2)”, the target mRNA inhibition stood at 4% (A431, 0.12 µM); 0% (A431, 0.6 µM); 33% (A431, 3 µM); 17% (A431, 15 µM); 17% (HepG2, 0.222 µM); 42% (HepG2, 0.667 µM). In addition, the target mRNA inhibition was 76% (HepG2, 2 µM) and 54% (HepG2, 6 µM).
Regarding “GTGATCATAAATCAGTT (sugars e2 k2 d9 k2 e2, PS)”, for the setting “HepG2, 5 µM”, the target mRNA inhibition was determined as 48%.
With “GGCCTCAGACTACATCC (sugars e2 k2 d8 k2 e3, PS)”, the target mRNA inhibition (HepG2, 4 µM) worked out at 70%.
Sequence “CATTGAAACAGACATTT (sugars e3 k2 d7 k2 e3, PS)” returned a target mRNA inhibition (HepG2, 3 µM) of 11%.
On the same count and under the same terms, the value for “AGCTAGCAGGATAACAG (sugars e3 k2 d7 k2 e3, PS)” was 15%; that for “GCCCAAGTCATCTGCTT (sugars e3 k2 d7 k2 e3, PS)” was 93%.
Under “HepG2, 5 µM”, “TCTGACAAGTTTAATAC (sugars e2 k2 d8 k2 e3, PS)” came in with a target mRNA inhibition of 33%.
Turning to “CACTGGTCCATTACTTT (sugars e3 k2 d7 k2 e3, PS)”, the target mRNA inhibition (HepG2, 3 µM) turned out to be 12%.
Turning to “TTAAGTCTGGCAAAATA (sugars e2 k2 d9 k2 e2, PS)”, the target mRNA inhibition (HepG2, 5 µM) came out at 42%.
Consider “CCGTCGCCCTTCAGCAC (sugars e2 k2 d8 k2 e3, PS)”, for which the target mRNA inhibition (HepG2, 4 µM) amounted to 71%.
In turn, “ACGCTGCAGGAGACTAC (sugars e3 k2 d7 k2 e3, PS)” had a target mRNA inhibition (HepG2, 3 µM) of 25%.
In turn, “GATTACAGTGTTTAATG (sugars e3 k2 d7 k2 e3, PS)” had a target mRNA inhibition (HepG2, 3 µM) of 10%.
“ATTGGGCGATCCCAATT (sugars e2 k2 d8 k2 e3, PS)” gave a target mRNA inhibition (HepG2, 4 µM) of 2%.
On to “AATCTTCCAAGTGATCATAA (sugars e5 d10 e5, PS)”, for which the target mRNA inhibition (HepG2, 5 µM) was 4%.
In turn, “AGGATACATTTCTACAG (sugars e2 k2 d8 k2 e3, PS)” came in with a target mRNA inhibition (HepG2, 4 µM) of 60%.
